Numbering of substitutions follows the chain as printed.
Key:
[1] = target: CK1δ wild type (GST-CK1δ) (Homo sapiens, UniProt P48730); experiment: in vitro kinase assay, GST-CK1δ wild type; format: biochemical; conditions: for Kinase activity of CK1δ in presence of inhibitor: 10 µM inhibitor, initial screening; for IC50: dilution series 0.005−10 µM, mean ± standard error, triplicate
Procedure: (§1) Overexpression and purification of GST-CK1δ fusion proteins, either wild type or mutant, were performed as described previously.
(§2) Each kinase assay reaction was performed in kinase buffer (25 mM Tris-HCl (pH 7.5), 10 μM ATP, 10 mM MgCl2, 100 μM EDTA) in presence of purified GST-CK1δ kinase as source of enzyme (either wild type or mutant), an assay-specific substrate (α-casein, GST-p53^1−64, or GST-β-catenin^1−181), and radiolabeled ATP (2 μCi [γ-^32P]-ATP). For performing Michaelis–Menten analysis increasing substrate concentrations were used (α-casein: 0.39−25 μM; GST-p53^1−64: 0.09−1.87 μM; GST-β-catenin^1−181: 0.07−1.32 μM). For biological evaluation of small molecule inhibitors (SMIs), each inhibitor compound was either tested at 10 μM concentration for initial screening or by using a dilution series (0.005−10 µM) for determination of IC50 values. DMSO was used as control. Reactions were incubated for 30 min at 30 °C and reactions were stopped using 5x SDS-loading buffer (250 mM Tris-HCl [pH 6.8], 25% (v/v) β-mercaptoethanol (MSH), 50% (v/v) glycerol, 10% (w/v) SDS, 0.5% (w/v) bromphenol blue). Subsequently, samples were separated by SDS-PAGE using 12.5% acrylamide gels, stained with Coomassie, and phosphorylated substrates were visualized on X-ray film. Incorporation of radiolabeled phosphate was quantified by scintillation counting of Coomassie-stained substrate bands. Defined dilutions of the reaction master mix were counted as well in order to convert results obtained as counts per minute (CPM) to units of transferred phosphate in pmol/min. Michaelis–Menten analysis was performed using GraphPad Prism 6 (GraphPad Software, San Diego, CA, USA).

CK1δ T67S = target: T1, CK1δ T67S (Homo sapiens, UniProt P48730, T67S); experiment: in vitro kinase assay, CK1δ mutant T67S; format: biochemical; conditions: 10 µM inhibitor, Figure 5a
T1 sequence (P48730 1-415 T67S): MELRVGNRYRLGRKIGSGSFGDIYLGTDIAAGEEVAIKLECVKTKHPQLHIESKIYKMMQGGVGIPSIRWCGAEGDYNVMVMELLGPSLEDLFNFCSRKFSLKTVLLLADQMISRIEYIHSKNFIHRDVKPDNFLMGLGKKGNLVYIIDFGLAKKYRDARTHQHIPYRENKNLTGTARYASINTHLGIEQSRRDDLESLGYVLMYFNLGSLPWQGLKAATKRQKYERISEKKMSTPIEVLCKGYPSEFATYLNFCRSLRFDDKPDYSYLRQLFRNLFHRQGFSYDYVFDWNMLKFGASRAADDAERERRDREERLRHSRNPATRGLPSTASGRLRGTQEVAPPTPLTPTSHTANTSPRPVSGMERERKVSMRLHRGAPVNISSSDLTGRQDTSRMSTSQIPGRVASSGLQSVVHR
Procedure: as §1, §2

HeLa CK1δ−/− cells = experiment: MTT viability assay, HeLa CK1δ−/− cells; format: cell-based; conditions: 25 μM, 48 h
Procedure: (§3) Parental HeLa cells, as well as HeLa CSNK1D knock-out cells (CK1δ^−/−) (generated by CRISP/Cas9 technology and provided by EDIGENE, Beijing, China), were cultured in Dulbecco’s Modified Eagle medium (DMEM). HCT-116 and HT-29 colon cancer cells were cultured in McCoy’s 5A medium whereas SW480 and SW620 colon cancer cells were cultured in Leibovitz’s L-15 medium. All media were supplemented with 10% (v/v) fetal bovine serum (FBS), 100 units/mL penicillin, and 100 µg/mL streptomycin. DMEM-based medium for the culture of HeLa CSNK1D knock-out cells was additionally supplemented with 1 μg/mL puromycin. Cell cultures were maintained at 37 °C in a humidified atmosphere containing 5% CO2. Cells were transfected using Effectene transfection reagent (Qiagen, Hilden, Germany) according to the manufacturer’s instructions. For selection of stably transfected clones, transfected cells were grown in selective medium, containing 0.6 mg/mL of G-418 (Calbiochem-Merck Millipore, Darmstadt, Germany).
(§4) For performing MTT viability assays, cells were seeded in a 96-well plate (5 × 10^4 cells/well for HeLa cells (parental, CK1δ^−/−, or CK1δ^−/− cells stably transfected with wild type or mutant CK1δ), HCT-116, and HT-29 cells or 7.5 × 10^4 cell/well for SW480 and SW620 cells). After 24 h, old medium was replaced with fresh medium containing either the small molecule of interest or DMSO as control. After 48 h of treatment, 10 μL MTT (5 mg/mL) was added and incubated at 37 °C for 4 h. The medium was then gently removed and 100 μL of acidic isopropanol was added (90% (v/v) isopropanol, 10% (v/v) 1 N HCl). Cell culture plates were then shaken for 30 min at room temperature. Absorbance was measured at 570 nm with TriStar^2 LB942 Microplate Reader (Berthold Technologies, Bad Wildbad, Germany) and data analysis was performed using GraphPad Prism 6 (GraphPad Software, San Diego, CA, USA).

CK1δ R127Q = target: T2, CK1δ R127Q (Homo sapiens, UniProt P48730, R127Q); experiment: in vitro kinase assay, CK1δ mutant R127Q; format: biochemical; conditions: 10 µM inhibitor, Figure 5b
T2 sequence (P48730 1-415 R127Q): T1 sequence (P48730 1-415 T67S) with S67T, R127Q
Procedure: as §1, §2

CK1α = CK1α (Homo sapiens, UniProt P48729); experiment: in vitro kinase assay, CK1α; format: biochemical; conditions: 10 µM inhibitor, initial screening
CK1γ = experiment: in vitro kinase assay, CK1γ; format: biochemical; conditions: 10 µM inhibitor, initial screening
parental HeLa cells = experiment: MTT viability assay, parental HeLa cells; format: cell-based; conditions: 25 μM, 48 h
Procedure: as §3, with “For selection of stably transfected clones, transfected cells were grown in selective medium, containing 0.6 mg/mL of G-418 (Calbiochem-Merck Millipore, Darmstadt, Germany).” left out
For performing MTT viability assays, cells were seeded in a 96-well plate (5 × 10^4 cells/well for HeLa cells (parental, CK1δ^−/−, or CK1δ^−/− cells stably transfected with wild type or mutant CK1δ), HCT-116, and HT-29 cells or 7.5 × 10^4 cell/well for SW480 and SW620 cells). […] Absorbance was measured at 570 nm with TriStar^2 LB942 Microplate Reader (Berthold Technologies, Bad Wildbad, Germany) and data analysis was performed using GraphPad Prism 6 (GraphPad Software, San Diego, CA, USA).

CK1ε = CK1ε (Homo sapiens, UniProt P49674); experiment: in vitro kinase assay, CK1ε; format: biochemical; conditions: 10 µM inhibitor, initial screening
[2] = tested on: HeLa CK1δ+/+ cells (HeLa CK1δ−/− stably transfected with CK1δ); experiment: MTT viability assay, HeLa CK1δ+/+ cells; format: cell-based; conditions: 25 μM, 48 h
Procedure: as §3, §4

SW480 colon cancer cells = experiment: MTT viability assay, SW480; format: cell-based, human; conditions: 10 µM, 48 h, initial screening (Figure 10a)
Procedure: as §3, §4

SW620 colon cancer cells = experiment: MTT viability assay, SW620; format: cell-based, human; conditions: 48 h
Procedure: as §3, §4

HT-29 colon cancer cells = experiment: MTT viability assay, HT-29; format: cell-based; conditions: 10 µM, 48 h, initial screening (Figure 10a)
Procedure: as §3, §4

Sequence of CK1ε (P49674 whole entry): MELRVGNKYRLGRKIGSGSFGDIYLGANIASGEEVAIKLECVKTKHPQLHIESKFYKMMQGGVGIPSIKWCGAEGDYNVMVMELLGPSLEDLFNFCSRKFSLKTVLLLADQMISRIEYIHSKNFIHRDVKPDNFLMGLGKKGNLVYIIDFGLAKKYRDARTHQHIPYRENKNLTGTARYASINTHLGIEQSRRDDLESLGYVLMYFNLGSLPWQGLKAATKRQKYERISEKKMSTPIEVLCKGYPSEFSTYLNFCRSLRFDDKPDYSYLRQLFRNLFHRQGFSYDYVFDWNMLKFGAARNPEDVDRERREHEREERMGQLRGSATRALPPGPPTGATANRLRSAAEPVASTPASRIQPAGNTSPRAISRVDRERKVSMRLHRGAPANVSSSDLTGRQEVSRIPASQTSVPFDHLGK
Sequence of CK1α (P48729 whole entry): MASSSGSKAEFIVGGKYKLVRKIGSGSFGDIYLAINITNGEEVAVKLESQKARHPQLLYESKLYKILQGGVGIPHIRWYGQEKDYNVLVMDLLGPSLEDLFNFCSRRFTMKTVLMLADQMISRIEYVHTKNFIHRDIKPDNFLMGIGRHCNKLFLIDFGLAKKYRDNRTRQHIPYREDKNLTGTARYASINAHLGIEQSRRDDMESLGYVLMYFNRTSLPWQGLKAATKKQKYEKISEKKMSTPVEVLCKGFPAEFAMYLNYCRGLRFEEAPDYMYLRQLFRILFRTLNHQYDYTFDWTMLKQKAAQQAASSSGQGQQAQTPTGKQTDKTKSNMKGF
Sequence of CK1δ wild type (GST-CK1δ) (P48730 whole entry, the tested form may be a part): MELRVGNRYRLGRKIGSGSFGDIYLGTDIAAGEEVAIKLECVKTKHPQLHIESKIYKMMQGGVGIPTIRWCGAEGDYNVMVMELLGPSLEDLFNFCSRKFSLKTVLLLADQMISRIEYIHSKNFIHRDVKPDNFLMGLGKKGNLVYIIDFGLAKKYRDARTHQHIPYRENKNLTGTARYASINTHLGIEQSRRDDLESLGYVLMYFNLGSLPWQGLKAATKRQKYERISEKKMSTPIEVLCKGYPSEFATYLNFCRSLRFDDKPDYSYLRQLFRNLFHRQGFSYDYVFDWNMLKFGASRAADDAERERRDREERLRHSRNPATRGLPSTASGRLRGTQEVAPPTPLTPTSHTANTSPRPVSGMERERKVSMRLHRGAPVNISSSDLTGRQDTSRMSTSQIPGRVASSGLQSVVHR

| SMILES | Kinase activity of CK1δ in presence of inhibitor [1] | IC50 [1] [µM] | Inhibition of CK1δ T67S compared to wild type CK1δ (CK1δ T67S) | Effects on cell viability of CK1δ−/− cells compared to parental and/or CK1δ+/+ cells (HeLa CK1δ−/− cells) | Inhibition of CK1δ R127Q kinase activity compared to wild type CK1δ (CK1δ R127Q) | Kinase activity of CK1α in presence of inhibitor (CK1α) | Kinase activity of CK1γ in presence of inhibitor (CK1γ) | Effects on cell viability of parental HeLa cells, compared with compounds 18 and 19 (parental HeLa cells) | Kinase activity of CK1ε in presence of inhibitor (CK1ε) | Cell viability of CK1δ-expressing cells (HeLa parental or CK1δ+/+) compared to CK1δ-deficient cells (HeLa CK1δ−/−) [2] | Reduction of cell viability, SW480 (SW480 colon cancer cells) | Reduction of cell viability, SW620 (SW620 colon cancer cells; 10 µM, initial screening (Figure 10a)) [%] | Dose-dependent effects on SW620 cell viability (SW620 colon cancer cells; 0.625 to 20 µM, MTT (Figure S2)) | Reduction of CK1α activity (CK1α) | Reduction of cell viability, HT-29 (HT-29 colon cancer cells) |
| --- | --- | --- | --- | --- | --- | --- | --- | --- | --- | --- | --- | --- | --- | --- | --- |
| O=C(CSc1nccc(=O)n1-c1ccccc1)Nc1nc2ccc(C(F)(F)F)cc2s1 [Compound 16, 2-((3-Phenyl-4-oxo-3,4-dihydropyrimidin-2-yl)thio)-N-(6-(trifluoromethyl)benzo-[d]thiazol-2-yl)acetamide] | strongly inhibited | 2 | slightly stronger | not reduced | significantly stronger inhibited | not affected | not affected | less pronounced | strongly inhibited |  |  |  |  |  |  |
| COc1ccc(OC)c(-n2c(SCC(=O)Nc3nc4ccc(C(F)(F)F)cc4s3)nccc2=O)c1 [Compound 17, 2-((3-(2,5-Dimethoxyphenyl)-4-oxo-3,4-dihydropyrimidin-2-yl)thio)-N-(6-(trifluoromethyl)benzo[d]thiazol-2-yl)acetamide] | strongly inhibited |  | slightly stronger | not reduced |  | not affected | not affected | less pronounced | strongly inhibited |  |  |  |  |  |  |
| COc1cc(OC)cc(-n2c(SCC(=O)Nc3nc4ccc(C(F)(F)F)cc4s3)nccc2=O)c1 [Compound 19, 2-((3-(3,5-Dimethoxyphenyl)-4-oxo-3,4-dihydropyrimidin-2-yl)thio)-N-(6-(trifluoromethyl)benzo[d]thiazol-2-yl)acetamide] | strongly inhibited |  |  |  |  | not affected | not affected |  | strongly inhibited | more reduced |  |  |  |  |  |
| O=C(CSc1nccc(=O)n1Cc1ccc(C(F)(F)F)cc1)Nc1nc2ccc(C(F)(F)F)cc2s1 [Compound 21, 2-((3-(4-Trifluoromethylbenzyl)-4-oxo-3,4-dihydropyrimidin-2-yl)thio)-N-(6-(trifluoromethyl)benzo[d]thiazol-2-yl)acetamide] | strongly inhibited | 0.12 |  |  |  |  | not affected |  | strongly inhibited |  | minor changes | ~50 | only visible at the highest concentrations tested | at least 50% | minor changes |
